# From ChEMBL document CHEMBL3885861, “Open TG-GATES”
# Species on record: Rattus norvegicus
# Test: Open TG-GATES - Regimen: Single
# Type: toxicity, organism-based, Sprague-Dawley
# Design: regimen Single, gender Male, age 6 weeks
# Settings: in vivo, iv, route intravenous injection; for IP / K / LDH / Na / PL / RALB / TBIL / TC / TG / TP / gamma-GTP / A/G / ALP / ALT / AST / BUN / CRE / Ca / Cl / DBIL / GLC: tissue Plasma; for APTT / Bas / Eos / Fbg / Hb / Ht / Lym / MCH / MCHC / MCV / Mono / Neu / PT / Plat / RBC / Ret / WBC: tissue Blood; for KIDNEY_L / KIDNEY_R / KIDNEY_TOTAL: tissue Kidney; for LIVER: tissue Liver
# [1] = 2 mg/kg, 6 h, dose level Middle
# [2] = 2 mg/kg, 9 h, dose level Middle
# [3] = 2 mg/kg, 24 h, dose level Middle
structure (smiles),measurement,setting,value
C[C@@H]1[C@H](O)[C@@H](C)/C=C/C=C/C=C/C=C/C=C/C=C/C=C/[C@H](O[C@@H]2O[C@H](C)[C@@H](O)[C@H](N)[C@@H]2O)C[C@@H]2O[C@](O)(C[C@@H](O)C[C@@H](O)[C@H](O)CC[C@@H](O)C[C@@H](O)CC(=O)O[C@H]1C)C[C@H](O)[C@H]2C(=O)O [AMPHOTERICIN B],IP,[1],11.3 mg/dL
same,K,[1],5.5 meq/L
same,LDH,[1],531 IU/L
same,Na,[1],142.5 meq/L
same,PL,[1],116.2 mg/dL
same,RALB,[1],2.5 g/dL
same,TBIL,[1],0.0675 mg/dL
same,TC,[1],69 mg/dL
same,TG,[1],41 mg/dL
same,TP,[1],5.5 g/dL
same,gamma-GTP,[1],3.2 IU/L
same,TERMINAL_BW,[2],209.6 g
same,APTT,[2],16.5 s
same,Bas,[2],0%
same,Eos,[2],0.2%
same,Fbg,[2],288.2 mg/dL
same,Hb,[2],13.5 g/dL
same,Ht,[2],37.5%
same,Lym,[2],59%
same,MCH,[2],21.2 pg
same,MCHC,[2],36%
same,MCV,[2],59 fL
same,Mono,[2],3.5%
same,Neu,[2],35.8%
same,PT,[2],12.8 s
same,Plat,[2],147.9 x10_4/uL
same,RBC,[2],634.8 x10_4/ul
same,Ret,[2],7.8%
same,WBC,[2],117.4 x10_2/uL
same,KIDNEY_L,[2],1 g
same,KIDNEY_R,[2],1 g
same,KIDNEY_TOTAL,[2],2 g
same,LIVER,[2],8.3 g
same,A/G,[2],0.8
same,ALP,[2],1444 IU/L
same,ALT,[2],39.5 IU/L
same,AST,[2],80.8 IU/L
same,BUN,[2],29.8 mg/dL
same,CRE,[2],0.2 mg/dL
same,Ca,[2],10.8 mg/dL
same,Cl,[2],109.2 meq/L
same,DBIL,[2],0.0225 mg/dL
same,GLC,[2],171.5 mg/dL
same,IP,[2],10.7 mg/dL
same,K,[2],3.8 meq/L
same,LDH,[2],64.8 IU/L
same,Na,[2],145 meq/L
same,PL,[2],139.8 mg/dL
same,RALB,[2],2.5 g/dL
same,TBIL,[2],0.0875 mg/dL
same,TC,[2],83.5 mg/dL
same,TG,[2],22.8 mg/dL
same,TP,[2],5.6 g/dL
same,gamma-GTP,[2],1.5 IU/L
same,TERMINAL_BW,[3],219.6 g
same,APTT,[3],14.8 s
same,Bas,[3],0%
same,Eos,[3],1%
same,Fbg,[3],363 mg/dL
same,Hb,[3],13.6 g/dL
same,Ht,[3],39.2%
same,Lym,[3],74%
same,MCH,[3],20.6 pg
same,MCHC,[3],34.7%
same,MCV,[3],59.2 fL
same,Mono,[3],2.7%
same,Neu,[3],21.7%
same,PT,[3],12.3 s
same,Plat,[3],150.1 x10_4/uL
same,RBC,[3],663 x10_4/ul
same,Ret,[3],6.5%
same,WBC,[3],92.3 x10_2/uL
same,KIDNEY_L,[3],1 g
same,KIDNEY_R,[3],1 g
same,KIDNEY_TOTAL,[3],2 g
same,LIVER,[3],10.1 g
same,A/G,[3],0.8
same,ALP,[3],1322 IU/L
same,ALT,[3],32.3 IU/L
same,AST,[3],65 IU/L
same,BUN,[3],22.7 mg/dL
same,CRE,[3],0.2 mg/dL
same,Ca,[3],11 mg/dL
same,Cl,[3],106.7 meq/L
same,DBIL,[3],0.0133 mg/dL
same,GLC,[3],171.3 mg/dL
same,IP,[3],7.6 mg/dL
same,K,[3],4.3 meq/L
same,LDH,[3],57.3 IU/L
same,Na,[3],144 meq/L
same,PL,[3],148.7 mg/dL
same,RALB,[3],2.6 g/dL
same,TBIL,[3],0.0567 mg/dL
same,TC,[3],91.3 mg/dL
same,TG,[3],64.7 mg/dL
same,TP,[3],5.9 g/dL
same,gamma-GTP,[3],1.3 IU/L
same,TERMINAL_BW,"4 mg/kg, 24 h, dose level High",207 g
same,APTT,"4 mg/kg, 24 h, dose level High",12.7 s
same,Bas,"4 mg/kg, 24 h, dose level High",0%
same,Eos,"4 mg/kg, 24 h, dose level High",1%
same,Fbg,"4 mg/kg, 24 h, dose level High",536 mg/dL
same,Hb,"4 mg/kg, 24 h, dose level High",14.3 g/dL
same,Ht,"4 mg/kg, 24 h, dose level High",37.3%
same,Lym,"4 mg/kg, 24 h, dose level High",55%
same,MCH,"4 mg/kg, 24 h, dose level High",21.1 pg
same,MCHC,"4 mg/kg, 24 h, dose level High",38.3%
same,MCV,"4 mg/kg, 24 h, dose level High",55.1 fL
same,Mono,"4 mg/kg, 24 h, dose level High",2%
same,Neu,"4 mg/kg, 24 h, dose level High",42%
same,PT,"4 mg/kg, 24 h, dose level High",11.1 s
same,Plat,"4 mg/kg, 24 h, dose level High",105.2 x10_4/uL
same,RBC,"4 mg/kg, 24 h, dose level High",676 x10_4/ul
same,Ret,"4 mg/kg, 24 h, dose level High",6.3%
same,WBC,"4 mg/kg, 24 h, dose level High",121.2 x10_2/uL
same,KIDNEY_L,"4 mg/kg, 24 h, dose level High",1.2 g
same,KIDNEY_R,"4 mg/kg, 24 h, dose level High",1.1 g
same,KIDNEY_TOTAL,"4 mg/kg, 24 h, dose level High",2.4 g
same,LIVER,"4 mg/kg, 24 h, dose level High",8.7 g
same,A/G,"4 mg/kg, 24 h, dose level High",0.7
same,ALP,"4 mg/kg, 24 h, dose level High",1402 IU/L
same,ALT,"4 mg/kg, 24 h, dose level High",227 IU/L
same,AST,"4 mg/kg, 24 h, dose level High",699 IU/L
same,BUN,"4 mg/kg, 24 h, dose level High",53 mg/dL
same,CRE,"4 mg/kg, 24 h, dose level High",0.3 mg/dL
same,Ca,"4 mg/kg, 24 h, dose level High",11 mg/dL
same,Cl,"4 mg/kg, 24 h, dose level High",108 meq/L
same,DBIL,"4 mg/kg, 24 h, dose level High",0.03 mg/dL
same,GLC,"4 mg/kg, 24 h, dose level High",160 mg/dL
same,IP,"4 mg/kg, 24 h, dose level High",8 mg/dL
same,K,"4 mg/kg, 24 h, dose level High",4.1 meq/L
same,LDH,"4 mg/kg, 24 h, dose level High",117 IU/L
same,Na,"4 mg/kg, 24 h, dose level High",146 meq/L
same,PL,"4 mg/kg, 24 h, dose level High",111 mg/dL
same,RALB,"4 mg/kg, 24 h, dose level High",2.5 g/dL
same,TBIL,"4 mg/kg, 24 h, dose level High",0.1 mg/dL
same,TC,"4 mg/kg, 24 h, dose level High",76 mg/dL
same,TG,"4 mg/kg, 24 h, dose level High",13 mg/dL
same,TP,"4 mg/kg, 24 h, dose level High",6.1 g/dL
same,gamma-GTP,"4 mg/kg, 24 h, dose level High",2 IU/L
